The text below walks through data of ChEMBL document CHEMBL4483862, “Open-source discovery of chemical leads for next-generation chemoprotective antimalarials” (2018).

The structures appear in SMILES notation. Bounds are passed on as bounds.

This test relates to Plasmodium berghei. Description: Luciferase/luciferin-expressing antifolate-resistant parasites were used to infect a culture of HepG2 cells that were pre-incubated with compounds. Infected hepatocytes emit light due to the luciferase reaction. Assay results are presented as the percent inhibition of light emission compared to control. […]. To be noted: sporozoite; for IC90: read-out: LUCIFERASE INFECTION ASSAY - IC90. It counts as functional.

Where [1] appears, read: read-out: LUCIFERASE INFECTION ASSAY - IC50.

As a reminder, the IC50 is the concentration needed to halve the response being measured. As usually defined, the IC90 is the concentration at which the effect reaches the 90% level.

Regarding `CC(C)c1ccc(-c2nnc(NC(=O)CNC(=O)c3cccc(S(=O)(=O)N(C)C)c3)s2)cc1`, the IC90 is more than 10 µM. Further, the concentration for half-maximal inhibition (IC50) (PBLUC_HILL_SLOPE 2.11, PBLUC_R_SQUARED 0.538, read-out: LUCIFERASE INFECTION ASSAY - IC50) is 5.39 µM.
Turning to `CCCCC(CC)C(=O)Nc1nc2ccccn2c1C(=O)NC1CCCCC1` (stereo not given), the 90% effect concentration (IC90) is more than 8.58 µM. Further, the IC50 (PBLUC_HILL_SLOPE 8.64, PBLUC_R_SQUARED 0.333, read-out: LUCIFERASE INFECTION ASSAY - IC50) was determined as 8.01 µM.
`Cc1ccc(Cn2ncc3c(C(=O)Nc4ccc(C)c(F)c4)cc(C)nc32)cc1`: the 90% effect concentration (IC90) was more than 10 µM. Also, under setting [1], the half-maximal inhibitory concentration (IC50) was more than 10 µM.
Regarding `CNc1snc(C)c1C(=O)OCc1coc(-c2cccs2)n1`, the concentration for an effect of 90% (IC90) was found to be 0.0184 µM. Also, the IC50 (PBLUC_HILL_SLOPE 23.3, PBLUC_R_SQUARED 0.377, read-out: LUCIFERASE INFECTION ASSAY - IC50) worked out at 0.0168 µM.
On to `COc1ccc(C2CC(=O)Nc3ccc4ccccc4c32)c(OC)c1OC` (stereo not given), for which the IC90 is more than 9.08 µM. The IC50 under setting [1] is more than 9.08 µM.
Consider `Cc1cccn2c(C(=O)NC(C)C)c(NC(=O)c3cccc(C(F)(F)F)c3)nc12`, for which the IC90 is more than 8.16 µM. Also, the 50% inhibitory concentration (IC50) under setting [1] was more than 8.16 µM.
`CC(C)(C)c1ccc(C(=O)NNC(=S)Nc2cccc(C(F)(F)F)c2)cc1`: the IC90 was more than 8.34 µM. The IC50 under setting [1] was 7.4 µM.
Take `CC(=O)c1c(C)[nH]c(C(=O)OCC(=O)Nc2ccccc2C(F)(F)F)c1C`: the concentration for an effect of 90% (IC90) was more than 10 µM. Moreover, the half-inhibitory concentration (IC50) (HEPG2TOX_HILL_SLOPE 0.401, HEPG2TOX_R_SQUARED 0.713, read-out: LUCIFERASE INFECTION ASSAY - IC50) was more than 10 µM.
In the case of `COc1ccc(N(CCC(N)=O)C(=O)CSc2nc3ccccc3n2-c2ccc(OC)cc2)cc1`, the 90% effect concentration (IC90) is more than 10 µM. Under “FFLUC_HILL_SLOPE 0.23, FFLUC_R_SQUARED 0.0771, read-out: LUCIFERASE INFECTION ASSAY - IC50”, the IC50 was more than 10 µM.
As to `CCN(c1ccccc1)S(=O)(=O)c1ccc(C(=O)NC2CCCc3ccccc32)cc1` (stereo not given), the concentration for an effect of 90% (IC90) was more than 10 µM. Also, the concentration for half-maximal inhibition (IC50) under setting [1] is more than 10 µM.
`Cc1cc(C2=NNC(=CN3CCc4sccc4C3c3cccs3)O2)c(C)o1` (stereo not given): the IC90 was more than 10 µM. Besides, where the note is “FFLUC_HILL_SLOPE 3.77, FFLUC_R_SQUARED 0.256, read-out: LUCIFERASE INFECTION ASSAY - IC50”, the concentration for half-maximal inhibition (IC50) was more than 10 µM.
Take `CCCCNC(=O)c1c(NC(=O)c2ccc(F)cc2)nc2ccccn12`: the IC90 worked out at 3.43 µM. Under “FFLUC_HILL_SLOPE 20.6, FFLUC_R_SQUARED 0.0581, HEPG2TOX_HILL_SLOPE 2.28, HEPG2TOX_R_SQUARED 0.75, PBLUC_HILL_SLOPE 12.8, PBLUC_R_SQUARED 0.452, read-out: LUCIFERASE INFECTION ASSAY - IC50”, the IC50 was found to be 2.88 µM.
Regarding `Cc1cc(C(=O)OCC(=O)N(CCC#N)c2ccc(F)cc2)c2ccccc2n1`, the 90% effect concentration (IC90) was more than 10 µM. Besides, the half-maximal inhibitory concentration (IC50) under setting [1] is more than 10 µM.
Take `CC(C)(C)c1csc(Cc2ccc(-c3csnn3)cc2)n1`: the IC90 came to 8.68 µM. The half-maximal inhibitory concentration (IC50) (HEPG2TOX_HILL_SLOPE 6.43, HEPG2TOX_R_SQUARED 0.485, PBLUC_HILL_SLOPE 2.92, PBLUC_R_SQUARED 0.738, read-out: LUCIFERASE INFECTION ASSAY - IC50) was 4.09 µM.
On to `CCCn1c(NC(=O)C2CC(=O)N(Cc3ccc(C)cc3)C2)nc2ccccc21` (stereo not given), for which the IC90 is more than 10 µM. For the same molecule, under setting [1], the IC50 was more than 10 µM.
On to `FC(F)(F)Oc1cccc(-c2nc3ccnc(NCc4ccccn4)c3[nH]2)c1`, for which the 90% effect concentration (IC90) is more than 10 µM. Further, the 50% inhibitory concentration (IC50) (HEPG2TOX_HILL_SLOPE 0.276, HEPG2TOX_R_SQUARED 0.811, PBLUC_HILL_SLOPE 0.809, PBLUC_R_SQUARED 0.487, read-out: LUCIFERASE INFECTION ASSAY - IC50) worked out at 2.04 µM.
As for `CCc1ccc(Cl)c(CC)c1NC(=O)CCc1c(C)c2ccc(C)cc2oc1=O`, the IC90 is more than 10 µM. In addition, the 50% inhibitory concentration (IC50) (HEPG2TOX_HILL_SLOPE 2.1, HEPG2TOX_R_SQUARED 0.669, read-out: LUCIFERASE INFECTION ASSAY - IC50) is more than 10 µM.
For the molecule `C[C@@H](C(=O)NNC(=O)c1cccc(S(=O)(=O)N2CCOCC2)c1)N1C(=O)C2CC=CCC2C1=O` (stereo not given in full), the IC90 is more than 10 µM. Moreover, under setting [1], the IC50 is more than 10 µM.
`N#CC(C(=O)c1ccccc1NC(=O)C(F)(F)F)c1nc(-c2ccc(Cl)cc2)cs1` (stereo not given): the 90% effect concentration (IC90) was more than 10 µM. In addition, the half-inhibitory concentration (IC50) (FFLUC_HILL_SLOPE 12.8, FFLUC_R_SQUARED 0.656, read-out: LUCIFERASE INFECTION ASSAY - IC50) is more than 10 µM.
For the molecule `Cc1ccccc1-c1cn2c(-c3cccc(O)c3)cnc2cn1`, the 90% effect concentration (IC90) was found to be 8.68 µM. In addition, the IC50 (HEPG2TOX_HILL_SLOPE 2.6, HEPG2TOX_R_SQUARED 0.936, PBLUC_HILL_SLOPE 3.74, PBLUC_R_SQUARED 0.417, read-out: LUCIFERASE INFECTION ASSAY - IC50) is 4.82 µM.
Consider `Clc1ccc2c(NC3CCN(Cc4ccccc4)CC3)ccnc2c1`, for which the 90% effect concentration (IC90) is 8.05 µM. In addition, the half-maximal inhibitory concentration (IC50) (HEPG2TOX_HILL_SLOPE 11.4, HEPG2TOX_R_SQUARED 0.805, PBLUC_HILL_SLOPE 13.2, 4.09, PBLUC_R_SQUARED 0.263, 0.797, read-out: LUCIFERASE INFECTION ASSAY - IC50) is 5.96 µM.
Turning to `C=CCn1cnnc1SCC(=O)c1cccn1C`, the IC90 was more than 10 µM. The concentration for half-maximal inhibition (IC50) under setting [1] is more than 10 µM.
`CCc1c(C)[nH]c2c(-c3ccc(Cl)cc3)cnn2c1=O`: the IC90 was 11 µM. Further, the concentration for half-maximal inhibition (IC50) under setting [1] amounted to 5.93 µM.
On the same counts, the results for `CCCn1c(N)c(N2CCCCC2)c(=O)n(Cc2nc(N)nc(Nc3ccccc3)n2)c1=O` are 3.51 µM and 2.17 µM.
For `N#Cc1ccc(CN2CCCN(c3ncnc4sccc34)CC2)cc1`, in that order: more than 10 µM and 1.67 µM.
As for `O/N=C/c1ncc(C(F)(F)F)cc1Sc1ccc(Cl)cc1`, the IC90 was more than 9.92 µM. Moreover, the half-maximal inhibitory concentration (IC50) (FFLUC_HILL_SLOPE 8, FFLUC_R_SQUARED 0.0374, HEPG2TOX_HILL_SLOPE 8.44, HEPG2TOX_R_SQUARED 0.673, PBLUC_HILL_SLOPE 11.8, PBLUC_R_SQUARED 0.204, read-out: LUCIFERASE INFECTION ASSAY - IC50) was determined as 9.28 µM.
`Cc1ccc(-c2csc(NC(=O)CCn3ccnc3)n2)c(C)c1`: the 90% effect concentration (IC90) is more than 10 µM. Further, the IC50 under setting [1] is more than 10 µM.
On to `Cc1cc(C)c(C)c(S(=O)(=O)N2CCC(C(=O)Nc3nc(-c4ccc[nH]4)cs3)CC2)c1C`, for which the 90% effect concentration (IC90) was more than 10 µM. Further, the IC50 (FFLUC_HILL_SLOPE 22.1, FFLUC_R_SQUARED 0.531, read-out: LUCIFERASE INFECTION ASSAY - IC50) was more than 10 µM.
On to `Clc1ccc(OCc2cccnc2)c(CN2CCN(c3ncccn3)CC2)c1`, for which the 90% effect concentration (IC90) was more than 10 µM. The IC50 under setting [1] is more than 10 µM.
For the molecule `Cc1ccc(C2=NNC(=Nc3cccc(S(=O)(=O)N(C)C)c3)SC2)cc1`, the IC90 worked out at 4.33 µM. Further, the 50% inhibitory concentration (IC50) under setting [1] came out at 3.5 µM.
Take `COCC(C)Nc1ncnc2scc(-c3ccc(OC)cc3)c12` (stereo not given): the IC90 was 4.03 µM. The IC50 (HEPG2TOX_HILL_SLOPE 7.42, HEPG2TOX_R_SQUARED 0.779, PBLUC_HILL_SLOPE 12.3, PBLUC_R_SQUARED 0.781, read-out: LUCIFERASE INFECTION ASSAY - IC50) was determined as 3.37 µM.
In the case of `CC(c1nc2ccccc2s1)N(C)c1ncnc2sc3c(c12)CCC3` (stereo not given), the IC90 is more than 10 µM. For the setting “FFLUC_HILL_SLOPE 2.52, FFLUC_R_SQUARED 0.413, HEPG2TOX_HILL_SLOPE 5.64, HEPG2TOX_R_SQUARED 0.118, PBLUC_HILL_SLOPE 2.14, PBLUC_R_SQUARED 0.426, read-out: LUCIFERASE INFECTION ASSAY - IC50”, the IC50 was more than 10 µM.
As to `COC(=O)c1occc1CSc1nc(NC(=O)c2ccccc2)c2c(C)c(C)oc2n1`, the IC90 was more than 10 µM. Further, the IC50 under setting [1] was more than 10 µM.
In the case of `CC(=O)Nc1ccc(-c2cnc3ccc(-c4ccccc4)nn23)cc1`, the 90% effect concentration (IC90) is 3.8 µM. Also, the concentration for half-maximal inhibition (IC50) (HEPG2TOX_HILL_SLOPE 2.97, HEPG2TOX_R_SQUARED 0.938, PBLUC_HILL_SLOPE 2.21, PBLUC_R_SQUARED 0.595, read-out: LUCIFERASE INFECTION ASSAY - IC50) amounted to 1.4 µM.
For the molecule `CC1CCc2[nH]c3ccc(C(=O)Nc4ccccc4N4CCCCC4)cc3c2C1` (stereo not given), the 90% effect concentration (IC90) worked out at 0.818 µM. For the same molecule, the IC50 (FFLUC_HILL_SLOPE 10.4, FFLUC_R_SQUARED 0.246, PBLUC_HILL_SLOPE 2.51, PBLUC_R_SQUARED 0.903, read-out: LUCIFERASE INFECTION ASSAY - IC50) was 0.341 µM.
For `CC(NCc1ccc(-c2ccccc2)s1)c1ccc(-n2ccnc2)cc1` (stereo not given), the 90% effect concentration (IC90) is more than 10 µM. Also, the half-maximal inhibitory concentration (IC50) (PBLUC_HILL_SLOPE 1.59, PBLUC_R_SQUARED 0.529, read-out: LUCIFERASE INFECTION ASSAY - IC50) came to 7.08 µM.
In the case of `Cc1nc(C(=O)N2CCc3c(c(C(=O)NC4CCCC4)nn3CC(C)C)C2)cs1`, the 90% effect concentration (IC90) worked out at 2.9 µM. In addition, for the setting “PBLUC_HILL_SLOPE 2.42, PBLUC_R_SQUARED 0.681, read-out: LUCIFERASE INFECTION ASSAY - IC50”, the IC50 was found to be 1.17 µM.
With `CC1=C(C(=O)OCc2ccccc2)C(c2ccccc2OC(C)C)CC(=O)N1` (stereo not given), the IC90 was more than 8.7 µM. For the same molecule, the IC50 (FFLUC_HILL_SLOPE 12.1, FFLUC_R_SQUARED 0.679, read-out: LUCIFERASE INFECTION ASSAY - IC50) was more than 8.7 µM.
`COc1ccc(-c2nc3c(c(=O)[nH]c(=O)n3Cc3ccccc3)n2Cc2ccccc2)cc1`: the IC90 is more than 10 µM. Under “HEPG2TOX_HILL_SLOPE 7.19, HEPG2TOX_R_SQUARED 0.823, PBLUC_HILL_SLOPE 10.3, PBLUC_R_SQUARED 0.181, read-out: LUCIFERASE INFECTION ASSAY - IC50”, the IC50 came to 8.99 µM.
For `COc1cccc(Oc2ccc(C(F)(F)F)cc2NC(=O)c2ccc(NC(=O)C3CC3)s2)c1`, the 90% effect concentration (IC90) was more than 10 µM. In addition, the IC50 (PBLUC_HILL_SLOPE 3.5, PBLUC_R_SQUARED 0.215, read-out: LUCIFERASE INFECTION ASSAY - IC50) was found to be 6.65 µM.
